Experimental data reported in US7244744B2, “Piperidines” (Icagen, Inc., priority 2001, dated 2007).

Molecular target: T1, PN3 (Homo sapiens, UniProt Q9Y5Y9)
T1 construct: expressed in transfected cells
Assay: 14C Guanidinium Ion Influx Binding Assay (flux assay)
Assay type: cell-based
Settings: activity towards PN3, PN3 stably expressed in a host cell line, deltamethrine 10 μM
Procedure: 1.1 ^14C Guanidinium Ion Influx Binding Assay
PN3 stably expressed in a host cell line were maintained in DMEM with 5% fetal bovine serum and 300 μg/ml G-418. The cells were subcultured and grown to confluence in 96-well plates 24-48 h before each experiment. After the growth medium was removed, the cells were washed with warm buffer (25 mM Hepes-Tris, 135 mM choline chloride, 5.4 mM potassium chloride, 0.98 mM magnesium sulfate, 5.5 mM glucose, and 1 mg/ml BSA, pH 7.4) and incubated in buffer on a 36° C. slide wanner for approximately 10 minutes. Various concentrations of the test compounds or standard sodium channel blockers (10 μM) and then deltamethrine (10 μM) were added to each well. After the cells were exposed to deltamethrine for 5 minutes, 5 μM of ^14C-guanidinium was added, incubated with the radioligand (30-60 min), washed with ice-cold buffer, and dissolved in 0.1N sodium hydroxide. The radioactivity and the protein concentration of each cell lysate were determined by liquid scintillation counting and the protein assay using Pierce BCA reagent.

T1 sequence (Q9Y5Y9 whole entry, species assumed): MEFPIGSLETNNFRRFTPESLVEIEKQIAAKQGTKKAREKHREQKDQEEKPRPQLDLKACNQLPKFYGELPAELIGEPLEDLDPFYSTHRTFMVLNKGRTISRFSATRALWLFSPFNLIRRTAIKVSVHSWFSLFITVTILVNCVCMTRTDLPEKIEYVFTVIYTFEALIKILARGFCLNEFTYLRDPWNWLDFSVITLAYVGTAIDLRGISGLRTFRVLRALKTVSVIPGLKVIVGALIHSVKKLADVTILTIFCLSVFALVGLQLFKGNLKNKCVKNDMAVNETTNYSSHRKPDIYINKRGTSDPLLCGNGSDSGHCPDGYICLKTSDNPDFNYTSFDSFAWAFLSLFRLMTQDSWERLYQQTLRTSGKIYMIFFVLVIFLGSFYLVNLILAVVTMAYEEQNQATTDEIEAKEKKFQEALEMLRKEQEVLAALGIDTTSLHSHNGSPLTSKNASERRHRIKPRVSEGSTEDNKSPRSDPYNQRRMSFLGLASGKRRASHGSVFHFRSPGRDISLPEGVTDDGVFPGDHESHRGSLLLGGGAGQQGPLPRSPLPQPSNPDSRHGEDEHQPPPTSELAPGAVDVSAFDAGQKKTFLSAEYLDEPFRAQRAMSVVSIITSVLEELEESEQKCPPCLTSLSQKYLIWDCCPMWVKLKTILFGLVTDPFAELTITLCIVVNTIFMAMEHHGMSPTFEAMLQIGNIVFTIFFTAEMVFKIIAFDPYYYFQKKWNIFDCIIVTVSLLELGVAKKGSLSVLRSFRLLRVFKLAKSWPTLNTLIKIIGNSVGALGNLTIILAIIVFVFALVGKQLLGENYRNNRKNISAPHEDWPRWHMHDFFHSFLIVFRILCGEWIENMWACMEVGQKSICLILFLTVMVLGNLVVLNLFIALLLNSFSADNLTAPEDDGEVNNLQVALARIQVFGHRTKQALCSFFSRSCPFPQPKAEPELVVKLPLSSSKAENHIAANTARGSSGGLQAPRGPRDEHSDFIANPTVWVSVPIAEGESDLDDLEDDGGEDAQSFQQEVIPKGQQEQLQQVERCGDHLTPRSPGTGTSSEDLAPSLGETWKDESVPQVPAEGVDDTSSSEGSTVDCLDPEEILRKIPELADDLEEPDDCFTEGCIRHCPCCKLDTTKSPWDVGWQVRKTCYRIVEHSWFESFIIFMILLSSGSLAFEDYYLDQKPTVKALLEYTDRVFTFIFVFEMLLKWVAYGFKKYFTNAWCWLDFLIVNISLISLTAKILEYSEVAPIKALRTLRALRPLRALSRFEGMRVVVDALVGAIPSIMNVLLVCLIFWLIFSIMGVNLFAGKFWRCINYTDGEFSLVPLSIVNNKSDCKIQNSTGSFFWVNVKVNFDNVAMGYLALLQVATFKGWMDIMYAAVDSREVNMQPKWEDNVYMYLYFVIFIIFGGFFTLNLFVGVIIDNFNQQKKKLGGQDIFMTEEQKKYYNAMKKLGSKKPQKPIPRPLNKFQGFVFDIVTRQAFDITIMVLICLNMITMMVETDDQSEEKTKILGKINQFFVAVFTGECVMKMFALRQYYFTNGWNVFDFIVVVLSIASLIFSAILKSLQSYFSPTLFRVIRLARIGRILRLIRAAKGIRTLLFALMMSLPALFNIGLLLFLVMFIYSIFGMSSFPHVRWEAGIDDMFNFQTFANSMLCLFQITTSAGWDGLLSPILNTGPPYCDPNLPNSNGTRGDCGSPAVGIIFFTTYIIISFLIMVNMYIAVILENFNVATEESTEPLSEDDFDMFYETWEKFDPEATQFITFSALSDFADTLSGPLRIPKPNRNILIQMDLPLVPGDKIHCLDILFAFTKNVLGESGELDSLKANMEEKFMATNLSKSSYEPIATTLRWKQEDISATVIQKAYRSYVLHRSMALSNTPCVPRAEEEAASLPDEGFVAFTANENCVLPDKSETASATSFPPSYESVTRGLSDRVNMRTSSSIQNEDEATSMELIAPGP

Compound: CCCCc1ccc(C(=O)N2CCC(n3c(=O)[nH]c4cccnc43)CC2)cc1 [Compound 200, 3-[1-(4-Butyl-benzoyl)-piperidin-4-yl]-1,3-dihydro-imidazo[4,5-b]pyridin-2-one]
- IC50: 0.1 to 4 µM

Compound: CCCCCCNc1nc2ccccc2n1C1CCN(C(=O)c2ccc(CCCC)cc2)CC1 [Compound 188, (4-Butyl-phenyl)-[4-(2-hexylamino-benzoimidazol-1-yl)-piperidin-1-yl]-methanone]
- IC50: 0.1 to 4 µM

Compound: CCCCc1ccc(C(=O)N2CCC(n3c(=O)[nH]c4cc(F)ccc43)CC2)cc1 [Compound 160, 1-[1-(4-Butyl-benzoyl)-piperidin-4-yl]-5-fluoro-1,3-dihydro-benzoimidazol-2-one]
- IC50: 0.1 to 4 µM

Compound: CCCCc1ccc(C(=O)N2CCC(n3c(=O)[nH]c4ccccc43)CC2)cc1 [Compound 34, 1-[1-(4-Butyl-benzoyl)-piperidin-4-yl]-1,3-dihydro-benzoimidazol-2-one]
- IC50: 0.1 to 4 µM

Compound: O=c1[nH]c2ccccc2n1C1CCN(S(=O)(=O)c2ccc3ccccc3c2)CC1 [Compound 304, 1-[1-(Naphthalene-2-sulfonyl)-piperidin-4-yl]-1,3-dihydro-benzoimidazol-2-one]
- IC50: 4.1 to 10 µM

Compound: CCCCc1ccc(C(=O)N2CCC(n3c(=O)n(Cc4ccncc4)c4ccccc43)CC2)cc1 [Compound 198, 1-[1-(4-Butyl-benzoyl)-piperidin-4-yl]-3-pyridin-4-ylmethyl-1,3-dihydro-benzoimidazol-2-one]
- IC50: 0.1 to 4 µM

Compound: CCCCc1ccc(C(=O)N2CC=C(n3c(=O)n(C)c4ccccc43)CC2)cc1 [Compound 206, 1-[1-(4-Butyl-benzoyl)-1,2,3,6-tetrahydro-pyridin-4-yl]-3-methyl-1,3-dihydro-benzoimidazol-2-one]
- IC50: 0.1 to 4 µM

Compound: CCCCc1ccc(C(=O)N2CCC(n3c(C)nc4ccccc43)CC2)cc1 [Compound 203, (4-Butyl-phenyl)-[4-(2-methyl-benzoimidazol-1-yl)-piperidin-1-yl]-methanone]
- IC50: 4.1 to 10 µM

Compound: CCCCc1ccc(C(=O)N2CC=C(n3c(=O)[nH]c4ccccc43)CC2)cc1 [Compound 181, 1-[1-(4-Butyl-benzoyl)-1,2,3,6-tetrahydro-pyridin-4-yl]-1,3-dihydro-benzoimidazol-2-one]
- IC50: 0.1 to 4 µM

Compound: CCCCc1ccc(C(=O)N2CCC(n3c(NCc4ccccn4)nc4ccccc43)CC2)cc1 [Compound 185, (4-Butyl-phenyl)-(4-{2-[(pyridin-2-ylmethyl)-amino]-benzoimidazol-1-yl}-piperidin-1-yl)-methanone]
- IC50: 4.1 to 10 µM

Compound: CCCCc1ccc(C(=O)N2CCC(n3c(=O)n(C)c4ccccc43)CC2)cc1 [Compound 150, 1-[1-(4-Butyl-benzoyl)-piperidin-4-yl]-3-methyl-1,3-dihydro-benzoimidazol-2-one]
- IC50: 0.1 to 4 µM

Compound: CCCCc1ccc(C(=O)N2CC=C(n3c(=O)n(Cc4ccccc4)c4ccccc43)CC2)cc1 [Compound 208, 1-Benzyl-3-[1-(4-butyl-benzoyl)-1,2,3,6-tetrahydro-pyridin-4-yl]-1,3-dihydro-benzoimidazol-2-one]
- IC50: 0.1 to 4 µM

Compound: CCCCc1ccc(C(=O)N2CCC(n3c(NCc4ccccc4)nc4ccccc43)CC2)cc1 [Compound 300, [4-(2-Benzylamino-benzoimidazol-1-yl)-piperidin-1-yl]-(4-butyl-phenyl)-methanone]
- IC50: 0.1 to 4 µM
